Source: patent publication US9884806B2, “Cyclic vinylogous amides as bromodomain inhibitors” (ICAHN SCHOOL OF MEDICINE AT MOUNT SINAI, priority 2013, dated 2018)

What was measured:
[1] = biological target: T1, first bromodomain (BrD1) of human BRD4 (Homo sapiens, UniProt O60885); assay: Fluorescence anisotropy binding assay (competition with FITC-labeled MS417 probe); conditions: FITC-MS417 probe 80 nM, PBS pH 7.4, 1 hour, 25° C., read-out: BRD4_1 IC50
T1 construct: the first bromodomain (BrD1) of human BRD4; poly-His (cleaved yes); made in house
Procedure: Fluorescence Anisotropy Binding Assay
Expression and purification of the first bromodomain (BrD1) of human BRD4 in poly-His tag form was performed using a procedure described in the literature [See Zeng et al. Structure 16, 643-652 (2008) and Zhang et al., J Biol Chem 287, 28840-28851 (2012).] The protein was purified by using affinity chromatography on a nickel-IDA column (Invitrogen), followed by the removal of poly-His tag by thrombin cleavage.
Binding affinity of the newly synthesized compounds to the BRD4 BrD1 was assessed in a fluorescence anisotropy assay using a fluorescein isothiocyanate (FITC)-labeled MS417 as an assay probe (Zhang et al. 2008 op.cit.). Competition binding was performed with a BrD protein (0.25 to 1 μM) and the fluorescent probe (80 nM), and increasing concentration of unlabeled competing ligand in a PBS buffer (pH 7.4) in total volume of 80 μL. Measurements were obtained after 1 hour incubation of the fluorescent ligand and the protein at 25° C. with Safire 2 microplate reader (Tecan). In the assay, fluorescent ligand concentration was ≦2Kd, and protein concentration was set at which 50-80% of fluorescent ligand is bound. Dissociation constant of a competing ligand was calculated with the correction to Cheng-Prussoff equation introduced by Nicolovska-Coleska and colleagues [Nikolovska-Coleska, Z. et al., Anal Biochem 332, 261-273 (2004). Assuming one-site competitive binding model, the equation used to calculate Ki's from IC50 values recovered from fitting data using Prism:
[formula] where [I50] is the concentration of free inhibitor at 50% inhibition, [L50], the concentration of free labeled ligand at 50% inhibition, and [P0], concentration of free protein at 0% inhibition. Note that Kd for each protein-probe pair is the limit of resolvable Ki in a competition assay.

BRD4_2 = biological target: T2, BRD4_2 (Homo sapiens, UniProt O60885); assay: Fluorescence anisotropy binding assay (competition with FITC-labeled MS417 probe), BRD4_2; conditions: FITC-MS417 probe 80 nM, PBS pH 7.4, 1 hour, 25° C.
T2 construct: contains two tandem bromodomains (BrD1 and BrD2)

| IC50 [1] | IC50 (BRD4_2) | Compound |
| --- | --- | --- |
| 1 to 10 µM | 1 to 10 µM | CC1=C(Nc2ccc(C(=O)NC3CCCCC3)cc2C)CCC1=O [Example 04-78, N-cyclohexyl-3-methyl-4-((2-methyl-3-oxocyclopent-1-en-1-yl)amino)benzamide] |
| 1 to 10 µM | 1 to 10 µM | CC1=C(Nc2ccc(C(=O)Nc3cccc4ccccc34)cc2C)CCC1=O [Example 04-79, 3-methyl-4-((2-methyl-3-oxocyclopent-1-en-1-yl)amino)-N-(naphthalen-1-yl)benzamide] |
| 1 to 10 µM | 1 to 10 µM | CC1=C(Nc2ccc(C(=O)Nc3ccccc3)cc2C)CCC1=O [Example 04-80, 3-methyl-4-((2-methyl-3-oxocyclopent-1-en-1-yl)amino)-N-phenylbenzamide] |
| 1 to 10 µM | 1 to 10 µM | COc1ccccc1NC(=O)c1ccc(NC2=C(C)C(=O)CC2)c(C)c1 [Example 04-81, N-(2-methoxyphenyl)-3-methyl-4-((2-methyl-3-oxocyclopent-1-en-1-yl)amino)-benzamide] |
| 1 to 10 µM | 1 to 10 µM | COc1cccc(NC(=O)c2ccc(NC3=C(C)C(=O)CC3)c(C)c2)c1 [Example 04-82, N-(3-methoxyphenyl)-3-methyl-4-((2-methyl-3-oxocyclopent-1-en-1-yl)amino)-benzamide] |
| 1 to 10 µM | 1 to 10 µM | COc1ccc(NC(=O)c2ccc(NC3=C(C)C(=O)CC3)c(C)c2)cc1 [Example 04-83, N-(4-methoxyphenyl)-3-methyl-4-((2-methyl-3-oxocyclopent-1-en-1-yl)amino)-benzamide] |
| 1 to 10 µM | 1 to 10 µM | CC1=C(Nc2ccc(C(=O)Nc3ccccc3C)cc2C)CCC1=O [Example 04-84, 3-methyl-4-((2-methyl-3-oxocyclopent-1-en-1-yl)amino)-N-(o-tolyl)benzamide] |
| 1 to 10 µM | 1 to 10 µM | CC1=C(Nc2ccc(C(=O)Nc3cccc(C)c3)cc2C)CCC1=O [Example 04-85, 3-methyl-4-((2-methyl-3-oxocyclopent-1-en-1-yl)amino)-N-(m-tolyl)benzamide] |
| 1 to 10 µM | 1 to 10 µM | CC1=C(Nc2ccc(C(=O)Nc3ccc(C)cc3)cc2C)CCC1=O [Example 04-86, 3-methyl-4-((2-methyl-3-oxocyclopent-1-en-1-yl)amino)-N-(p-tolyl)benzamide] |
| 1 to 10 µM | > 10 µM | COC(=O)c1cccc(NC(=O)c2ccc(Cl)c(NC3=C(C)C(=O)CCC3)c2)c1C [Example 04-92, methyl 3-(4-chloro-3-((2-methyl-3-oxocyclohex-1-en-1-yl)amino)benzamido)-2-methylbenzoate] |
| 1 to 10 µM | 1 to 10 µM | COC(=O)c1ccc(C)c(NC(=O)c2ccc(Cl)c(NC3=C(C)C(=O)CCC3)c2)c1 [Example 04-93, methyl 3-(4-chloro-3-((2-methyl-3-oxocyclohex-1-en-1-yl)amino)benzamido)-4-methylbenzoate] |
| > 10 µM | > 10 µM | CC1=C(Nc2cc(C(=O)Nc3cccc(C(=O)O)c3C)ccc2Cl)CCCC1=O [Example 04-95, 3-(4-chloro-3-((2-methyl-3-oxocyclohex-1-en-1-yl)amino)benzamido)-2-methylbenzoic acid] |
| 1 to 10 µM | > 10 µM | CC1=C(Nc2cc(C(=O)Nc3cc(C(=O)O)ccc3C)ccc2Cl)CCCC1=O [Example 04-96, 3-(4-Chloro-3-((2-methyl-3-oxocyclohex-1-en-1-yl)amino)benzamido)-4-methylbenzoic acid] |
| 1 to 10 µM | > 10 µM | CC1=C(Nc2cc(C(=O)Nc3ccc(C(=O)O)cc3C)ccc2Cl)CCCC1=O [Example 04-97, 4-(4-chloro-3-((2-methyl-3-oxocyclohex-1-en-1-yl)amino)benzamido)-3-methylbenzoic acid] |
| 1 to 10 µM | 1 to 10 µM | COc1ccc(NC(=O)Cc2ccc(NC3=C(C)C(=O)CCC3)cc2)cc1 [Example 04-99, N-(4-methoxyphenyl)-2-(4-((2-methyl-3-oxocyclohex-1-en-1-yl)amino)phenyl)-acetamide] |
| < 1 µM | 1 to 10 µM | COc1ccc(NC(=O)c2cc(NC3=C(C)C(=O)CCC3)cc3ccccc23)cc1 [Example 04-105, N-(4-methoxyphenyl)-3-((2-methyl-3-oxocyclohex-1-en-1-yl)amino)-1-naphthamide] |
| 1 to 10 µM | 1 to 10 µM | COC(=O)c1ccc(NC2=C(C)C(=O)CCC2)c(Cl)c1 [Example 05-12, methyl 3-chloro-4((2-methyl-3-oxocyclohex-1-en-1-yl)amino)benzoate] |

| IC50 [1] | IC50 (BRD4_2) | Compound |
| --- | --- | --- |
| < 1 µM | 1 to 10 µM | COc1ccccc1NC(=O)c1ccc(NC2=C(C)C(=O)CCC2)c(Cl)c1 [Example 05-14, 3-chloro-N-(2-methoxyphenyl)-4-((2-methyl-3-oxocyclohex-1-en-1-yl)amino)benzamide] |
| 1 to 10 µM | 1 to 10 µM | COc1ccc(NC(=O)c2ccc(NC3=C(C)C(=O)CC3)c(F)c2)cc1 [Example 05-17, 3-fluoro-N-(4-methoxyphenyl)-4-((2-methyl-3-oxocyclopent-1-en-1-yl)amino)benzamide] |
| < 1 µM | 1 to 10 µM | COc1ccc(NC(=O)c2ccc(NC3=C(C)C(=O)CC3)c(Br)c2)cc1 [Example 05-18, 3-bromo-N-(4-methoxyphenyl)-4-((2-methyl-3-oxocyclopent-1-en-1-yl)amino)benzamide] |
| > 10 µM | > 10 µM | N#CC1=C(Nc2cccc(Cl)c2)CCCC1=O [Example 05-32, 2-((3-chlorophenyl)amino)-6-oxocyclohex-1-enecarbonitrile] |
| > 10 µM | > 10 µM | N#CC1=C(Nc2cc(C(=O)O)ccc2Cl)CCCC1=O [Example 05-33, 4-chloro-3-((2-cyano-3-oxocyclohex-1-en-1-yl)amino)benzoic acid] |
| > 10 µM | > 10 µM | Cc1ccccc1NC(=O)c1ccc(Cl)c(NC2=C(C#N)C(=O)CCC2)c1 [Example 05-34, 4-chloro-3-((2-cyano-3-oxocyclohex-1-en-1-yl)amino)-N-(o-tolyl)benzamide] |
| > 10 µM | > 10 µM | COc1ccc(NC(=O)c2ccc(Cl)c(NC3=C(C#N)C(=O)CCC3)c2)cc1 [Example 05-35, 4-chloro-3-((2-cyano-3-oxocyclohex-1-en-1-yl)amino)-N-(4-methoxyphenyl)benzamide] |
| > 10 µM | > 10 µM | COc1ccc(NC(=O)c2ccc(Cl)c(NC3=C(C#N)C(=O)CCC3)c2)c(C)c1 [Example 05-36, 4-chloro-3-((2-cyano-3-oxocyclohex-1-en-1-yl)amino)-N-(4-methoxy-2-methylphenyl)benzamide] |
| 1 to 10 µM | > 10 µM | CC1=C(Nc2cccc(NC(=O)c3ccccc3C)c2Cl)CCCC1=O [Example 05-50, N-(2-chloro-3-((2-methyl-3-oxocyclohex-1-en-1-yl)amino)phenyl)-2-methylbenzamide] |
| < 1 µM | < 1 µM | CC1=C(Nc2cc(NS(=O)(=O)c3ccccc3Cl)ccc2Cl)CCC1=O [Example 05-56, N-(4-chloro-3-((2-methyl-3-oxocyclopent-1-en-1-yl)amino)-phenyl)-2-chlorobenzenesulfonamide] |
| < 1 µM | 1 to 10 µM | CC1=C(Nc2cccc(NS(=O)(=O)C3CCCCC3)c2Cl)CCCC1=O [Example 05-71, N-(2-chloro-3-((2-methyl-3-oxocyclohex-1-en-1-yl)amino)phenyl)-cyclohexanesulfonamide] |
| < 1 µM | 1 to 10 µM | CC1=C(Nc2cccc(Nc3ccccc3C)c2Cl)CCCC1=O [Example 05-80, 3-((2-chloro-3-(o-tolylamino)phenyl)amino)-2-methylcyclohex-2-enone] |
| < 1 µM | > 10 µM | CC1=C(Nc2cccc(NC(=O)/C=C\C(=O)O)c2Cl)CCCC1=O [Example 05-85, (Z)-4-((2-chloro-3-((2-methyl-3-oxocyclohex-1-en-1-yl)amino)phenyl)-amino)-4-oxobut-2-enoic acid] |
| < 1 µM | 1 to 10 µM | CC1=C(Nc2cccc(-c3cn(Cc4ccccc4C)nn3)c2)CCC1=O [Example 06-10, 2-methyl-3-((3-(1-(2-methylbenzyl)-1H-1,2,3-triazol-4-yl)phenyl)amino)cyclopent-2-enone] |
| < 1 µM | 1 to 10 µM | COc1ccc(Cn2cc(-c3cccc(NC4=C(C)C(=O)CC4)c3)nn2)cc1 [Example 06-15, 3-((3-(1-(4-methoxybenzyl)-1H-1,2,3-triazol-4-yl)phenyl)amino)-2-methylcyclopent-2-enone] |
| < 1 µM | 1 to 10 µM | CC1=C(Nc2ccc(-c3cn(Cc4ccccc4)nn3)cc2)CCC1=O [Example 06-28] |
| 1 to 10 µM | > 10 µM | CC1=C(Nc2ccc(C(=O)O)cc2)CCC1=O [Examples 02-1] |
